Measured values as given in patent US5304473A (Eli Lilly and Company, priority 1991, dated 1994).

Assays:
[1] = test system: human placental IGF-I receptor; assay: Human placental IGF-I receptor binding assay (competition with 125I IGF-I); conditions: human placental membranes
Description: (§1) Metab., Vol.67, pgs. 194-197, the entire teaching of which is hereby incorporated by reference, except that the incubation was performed at 4° C. for 18 hours and membranes were collected on a Skatron Cell Harvester (commercially available from Skatron, Inc., Sterling, Va.). The glucose transport assay in rat adipocytes was performed in substantial accordance with the teachings of Kashwagi, M., et al., (1983) J. Clin, Invest., Vol.72, pgs. 1246-1254, the entire teaching of which is hereby incorporated by reference.

[2] = test system: fasted, male, lean Sprague-Dawley rats; assay: In vivo hypoglycemic effect in fasted rats; parameters: species or system rat; conditions: for Max. hypoglycemic effect (percent) 1 hour: 1 hour after subcutaneous administration; for Max. hypoglycemic effect (percent) 1 hour / Max. hypoglycemic effect (percent) 2 hours: percent change from zero time corrected for control group; for Max. hypoglycemic effect (percent) 1 hour / Max. hypoglycemic effect (percent) 2 hours / ED50 1 hour / ED50 2 hours: mean ± S.E.M.; for Max. hypoglycemic effect (percent) 2 hours: 2 hours after subcutaneous administration; for ED50 1 hour: half the maximal hypoglycemic activity 1 hour after subcutaneous administration; for ED50 2 hours: half the maximal hypoglycemic activity 2 hours after subcutaneous administration
Description: The data presented in Table III were obtained in tests carried out in fasted, male, lean Sprague-Dawley rats (Charles River Laboratories).
In vivo activity of ACB-proinsulins was determined in fasted rats. Male, lean Sprague-Dawley rats (obtained from Charles River Laboratories, Wilmington, Mass. 01887) 190-210 g bodyweight, were fasted for 16 hours. Ten animals were chosen at random and divided into two groups of five rats each. The control group received a subcutaneous saline injection (0.1 ml per 100 g bodyweight) while the experimental groups received a saline injection containing the test peptide. Blood (0.1 ml) was obtained from the tail of each rat for glucose determination (Sigma Diagnostics, glucose [Trinder], address) before administration of the peptide and again at 30 minutes, 1, 2, 3 and 4 hours after administration of the peptide.
The mean percent change from zero time plus or minus S.E.M. in blood glucose for control and treated groups of rats were calculated and the final results expressed by adjusting the change in the experimental group for the change in the control group. The effect of 5 to 7 different doses of each peptide was routinely determined.

[3] = test system: rat adipocytes; assay: Glucose transport assay in rat adipocytes; type: cell-based; conditions: glucose uptake by adipocytes
Description: as §1

[4] = test system: human placental insulin receptor; assay: Human placental insulin receptor binding assay (competition with 125I insulin); conditions: placental membrane insulin receptors
Description: as §1

| ED50 IGF-I Receptor [1] | ED50 Insulin Receptor [4] | Substance | Max. hypoglycemic effect (percent) 1 hour [2] | Max. hypoglycemic effect (percent) 2 hours [2] | ED50 1 hour [2] | ED50 2 hours [2] | time at which blood glucose levels returned to baseline ([2]; s.c. administration) | time of maximal hypoglycemic response after subcutaneous administration ([2]; s.c. administration) | ED50 Glucose Transport [3] | Relative biological action to insulin 1 hour ([2]; 1 hour, subcutaneous, insulin = 100.0) | Relative biological action to insulin 2 hours ([2]; 2 hours, subcutaneous, insulin = 100.0) |
| --- | --- | --- | --- | --- | --- | --- | --- | --- | --- | --- | --- |
| 0.45 nM |  | IGF-I: human IGF-I, reference ligand of the IGF-I receptor |  |  |  |  |  |  |  |  |  |
|  |  | Insulin: human insulin, two-chain protein hormone, reference | 59.0 ± 4.3% | 45.7 ± 6.7% | 1.0 ± 0.01 nM | 1.6 ± 0.09 nM | 3 to 4 h | 1 h | 0.043 nM |  |  |
| 10000 nM | 20.4 nM | Proinsulin: naturally occurring human (BCA) proinsulin, reference | 55.1 ± 2.6% | 61.0 ± 4.0% | 91. ± 1.7 nM | 8.2 ± 0.8 nM |  | 2 h |  | 14.3 ± 2.8 | 19.5 ± 1.8 |
